The values below come from PubChem BioAssay (NCI).

Among the test systems are U251 CNS; COLO 205 colon; A498 renal; NCI-H23 lung; 786-0 renal; UACC-257 melanoma; HCT-15 colon; MALME-3M melanoma; MDA-N; RXF 393 renal; HT29 colon.
Experiment in all cases: NCI tumour cell line growth inhibition, 48 h

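96-well plates; 48 h exposure; 5 concentrations. Endpoints by linear interpolation between flanking doses. Not reached: highest tested concentration assigned. TGI marks complete inhibition of growth.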

On to `O=S1(=O)CCN(c2ccccc2CC(c2c[nH]c3ccccc23)c2c[nH]c3ccccc23)CC1`, for which the TGI in the assay with U251 CNS worked out at 24 µM; in the assay with COLO 205 colon, 8.23 µM; in the assay on A498 renal, 39.9 µM; with NCI-H23 lung, 22.6 µM; in the assay with 786-0 renal it was 27.8 µM; in the assay on UACC-257 melanoma it was 18 µM. The TGI in the assay with HCT-15 colon was determined as 36.3 µM; in the assay with MALME-3M melanoma, 43.7 µM; in the assay on MDA-N, 18.2 µM; in the assay on RXF 393 renal, 28.8 µM; with HT29 colon, 23.3 µM.

`CCN(CC)CCN(C)CCc1ccc(Br)cc1`: the TGI in the assay on U251 CNS is above 100 µM; in the assay on COLO 205 colon it was 39.5 µM; in the assay on A498 renal it was 60.4 µM; in the assay on NCI-H23 lung, above 100 µM; in the assay with 786-0 renal, above 100 µM; in the assay with UACC-257 melanoma, above 100 µM. Besides, the TGI in the assay on HCT-15 colon, in the assay on MALME-3M melanoma, in the assay with MDA-N, with RXF 393 renal and with HT29 colon was above 100 µM in each case.

`CC1=C2C(=O)c3ccccc3C(=O)[C@H]2C[C@@H](N2CCCCCC2=O)O1`: the TGI with U251 CNS is 50.6 µM; in the assay with COLO 205 colon, 32.2 µM; in the assay on A498 renal it was above 100 µM; with NCI-H23 lung, 31.1 µM; in the assay with 786-0 renal it was 32.7 µM; with UACC-257 melanoma it was 31.2 µM. The TGI in the assay on HCT-15 colon amounted to 47.5 µM; with MALME-3M melanoma, 25.5 µM; in the assay on MDA-N, 29.4 µM; in the assay on RXF 393 renal it was 55.9 µM; in the assay on HT29 colon it was 71.2 µM.

For `CO[P@]1(=O)O[C@@H](c2ccccc2)[C@H](O)[C@@]1(O)c1ccccc1`, the TGI in the assay with U251 CNS, in the assay on COLO 205 colon, with A498 renal, with NCI-H23 lung, in the assay on 786-0 renal and with UACC-257 melanoma was above 100 µM each time. Also, the TGI in the assay on HCT-15 colon, in the assay with MALME-3M melanoma, with MDA-N, in the assay on RXF 393 renal and in the assay on HT29 colon was above 100 µM in each case.

Take `NC(=O)C1=CC2C3C=CC2(O)C(=O)OC3O1` (stereo unspecified): the TGI with U251 CNS came out at 40.5 µM; in the assay on COLO 205 colon, 16.1 µM; in the assay on A498 renal, 59.3 µM; in the assay on NCI-H23 lung it was 9.47 µM; with 786-0 renal, 16 µM; with UACC-257 melanoma, 7.44 µM. Moreover, the TGI in the assay on HCT-15 colon was determined as 13.9 µM; with MALME-3M melanoma, 4.03 µM; with MDA-N, 6.97 µM; with RXF 393 renal, 8.23 µM; in the assay on HT29 colon, 9.83 µM.

As for `CC(=O)CC1(C)OC(N)=C(C#N)C1(C#N)C#N` (stereo unspecified), the TGI with U251 CNS, with COLO 205 colon, with A498 renal, in the assay on NCI-H23 lung, in the assay with 786-0 renal and in the assay on UACC-257 melanoma was above 100 µM throughout. Further, the TGI with HCT-15 colon, in the assay on MALME-3M melanoma, in the assay with MDA-N, in the assay with RXF 393 renal and with HT29 colon was above 100 µM throughout.

Turning to `CC(C)(C)c1ccc(-c2nnc(-c3cc(C#N)cc(-c4nnc(-c5ccc(C(C)(C)C)cc5)o4)c3)o2)cc1`, the TGI with U251 CNS, in the assay on COLO 205 colon, with A498 renal, in the assay on NCI-H23 lung, in the assay with 786-0 renal and in the assay on UACC-257 melanoma was above 100 µM throughout. The TGI in the assay with HCT-15 colon was above 100 µM; in the assay with MALME-3M melanoma, above 100 µM; in the assay on MDA-N it was above 100 µM; with RXF 393 renal, 96.9 µM; in the assay on HT29 colon, above 100 µM.

On to `CC(C)(C)c1c(C(C)(C)C)c(=O)c1=O`, for which the TGI in the assay on U251 CNS, in the assay with COLO 205 colon, with A498 renal, in the assay with NCI-H23 lung, with 786-0 renal and in the assay with UACC-257 melanoma was above 100 µM in each case. Besides, the TGI in the assay on HCT-15 colon, in the assay on MALME-3M melanoma, in the assay on MDA-N, in the assay on RXF 393 renal and with HT29 colon was above 100 µM each time.

For the compound `O=P(O)(O)CN1CCNCCN(CP(=O)(O)O)CCNCC1`, the TGI in the assay on U251 CNS, in the assay with COLO 205 colon, in the assay on A498 renal, in the assay on NCI-H23 lung, in the assay with 786-0 renal and in the assay on UACC-257 melanoma was above 100 µM throughout. Besides, the TGI in the assay with HCT-15 colon, in the assay with MALME-3M melanoma, with MDA-N, with RXF 393 renal and in the assay with HT29 colon was above 100 µM throughout.

Turning to `CCOC(=O)c1nc2ccccc2nc1NCc1ccc(Cl)cc1Cl`, the TGI in the assay on U251 CNS, in the assay with COLO 205 colon, in the assay with A498 renal, with NCI-H23 lung, in the assay with 786-0 renal and in the assay with UACC-257 melanoma was above 100 µM throughout. Besides, the TGI in the assay on HCT-15 colon, with MALME-3M melanoma, with MDA-N, in the assay on RXF 393 renal and with HT29 colon was above 100 µM each time.

Turning to `O=C(/C=C/c1ccco1)c1cccc(C(=O)/C=C/c2ccco2)n1`, the TGI in the assay on U251 CNS is 22.6 µM; in the assay with COLO 205 colon it was above 67.4 µM; in the assay on A498 renal, above 100 µM; with NCI-H23 lung, 31.8 µM; with 786-0 renal it was 20.5 µM; in the assay with UACC-257 melanoma, above 100 µM. In addition, the TGI in the assay with HCT-15 colon was 28.1 µM; in the assay with MALME-3M melanoma, above 100 µM; in the assay with MDA-N, above 100 µM; in the assay with RXF 393 renal, above 65.1 µM; in the assay on HT29 colon it was 37.4 µM.
